Assay [1] relates to RBE4 cells. Nature of the assay: Cytosolic Ca2+ imaging after medium transfer from irradiated to recipient RBE4 cells. The assay is classed as cell-based, rat. On the procedure: Cells were seeded on glass coverslips (18 mm 0) coated with 3.5 μg/cm^2 Corning cell-tak (VWR, Leuven, Belgium) and ester loaded for 45 min with 10 μM Fluo-3-AM in HBSS-HEPES supplemented with 1 mM of probenecid and 0.01% of pluronic F127 at room temperature followed by de-esterification over 15 min. Imaging was performed using an inverted fluorescence microscope equipped with a ×40 oil immersion objective and an EM-CCD camera (QuantEM™ 512SC CCD camera, Photometrics, Tucson, Ariz.). For direct Ca^2+ measurements the loaded cells were irradiated and transferred to the microscopy stage. For medium transfer, the loaded cells were superfused for 1 min with HBSS-Hepes (1 mM), followed by 4 min with HBSS-Hepes conditioned by irradiated cultures. Fluorescence intensity changes in the cells were analyzed with custom-developed FluoFrames software (L. Leybaert, Ghent, Belgium). Ca^2+ changes were quantified as the area under the curve (AUC) of the Ca^2+ traces.

In assay [2] the test system is RBE4 cells. As to the kind of experiment: γ-H2AX counts after local 3×3 mm X-ray irradiation (irradiated and bystander zones), RBE4 cells. It counts as cell-based, rat. The settings on record: 1 Gy, 3 h post-irradiation, Cbx 50 μM, Gap26 161 μM, TAT-Gap19 200 μM, Xestospongin C 5 μM. Here is the method:
(§1) A defined area of the cell culture dishes were exposed to X-rays (1Gy or 20 Gy) by using a small animal radiation research platform (SARRP, Xstrahl, 220 kV, 13 mA), making use of a 3×3 mm collimator. Whole dish irradiation was done using a 10×10 cm broad-beam collimator, while localized Irradiation was performed with a 3×3 mm collimator. A Gafchromic RTQA2 film, with a sensitivity of 0.02 Gy, was placed underneath the cell dishes in order to delineate the irradiated zone.
(§2) Cells were fixed for 25 min with 4% formaldehyde (VWR) and blocked for 30 min with blocking buffer (5% normal goat serum, 1% bovine serum albumin (BSA), 0.2% Triton X-100 in PBS D+). Overnight incubation with primary antibody (1/500 anti-γ-H2AX in dilution buffer, 1/10 blocking buffer in PBS D+) was followed by a 1 h incubation with 1/400 XX-biotin-goat-anti-mouse antibody in dilution buffer, followed by a 1 h incubation with 1/400 streptavidin-alexa488 in PBS D+. Nuclei were stained with 1 μg/mL DAPI in PBS D+ for 10 min and cells were kept in PBS D+ supplemented with NaN3 at 4° C. All steps except the overnight incubation which was carried out at 4° C., were carried out at room temperature and cell cultures were rinsed thoroughly with PBS D+ between all incubation steps. Imaging was performed with an automated BD Pathway 435 imaging system (10× objective, 10×10 montage resulting in an overall image size of 8.5×6.5 mm). We then quantified the number of γ-H2AX-foci positive nuclei in the directly irradiated and bystander areas and expressed the count as a percentage relative to the number of nuclei and subtracted the percentage of background γ-H2AX signal in non-irradiated paired control cultures for each experiment. For counting γ-H2AX foci, images were thresholded to remove background pixel noise below the foci level. Where applicable, results were normalized against vehicle (bar charts with a 100% vehicle bar without statistical variability or a horizontal line).

The subject of assay [3] is RBE4 cells. As to the kind of experiment: Irradiation-induced ATP release, RBE4 cells. The assay is classed as cell-based, rat. The settings on record: broad-beam 1 Gy, 5 min post-irradiation, BAPTA-AM 10 μM, NALC 1 mM, c-PTIO 100 μM. On the procedure: ATP was measured using a luciferin-luciferase assay kit (Sigma-Aldrich) in combination with a luminometer plate reader (Victor3 1420 multi label counter; Perkin Elmer, Zaventem, Belgium).
Extracellular ATP measurements were initially carried out at different time-points post-irradiation, the effect of blockers on ATP release was tested at the 5 min post-irradiation time-point (time of maximum ATP release).

In a further assay the test system is TICAE cells. As to the kind of experiment: Scrape loading and dye transfer (SLDT), gap junctional coupling after irradiation, TICAE cells. The assay is classed as cell-based, human. The settings on record: Carbenoxolone 50 μM, single 0.1 or 5 Gy, 6 h and 72 h p.i. Here is the method: (§3) The scrape loading and dye transfer assay (SLDT) was used to assess gap junctional function after IR exposure. TICAE and TIME cells were seeded in a 24-well plate at a density of 1×10^5 cells/well in four to six biological replicates. Three days later, cells reached 100% confluence and the medium was refreshed before irradiation with 1 ml/well for single irradiation experiment and 1.5 ml for fractionated irradiation experiment. At different time points after irradiation (6 and 72 h post single irradiation, or 72 h post fractionated irradiation) the cells were washed 3 times with a scrape loading and dye transfer (SLDT) buffer (137 mM NaCl, 5.36 mM KCl, 0.81 mM MgCl2, 5.55 mM […], 25 mM HEPES, pH 7.4). Then, the cells were incubated with a SLDT solution composed of SLDT buffer and 400 μM 6-carboxyfluorescein (6-CF, 0.376 kDa) (Sigma-Aldrich Co. LCC, Diegem, Belgium) for one minute. A vertical scratch was made in the middle of each well, using a 20G needle (Becton Dickinson, Erembodegem, Belgium). After another one minute incubation, the cells were washed 6 times with HMS supplemented with 25 mM HEPES (Sigma-Aldrich Co. LCC, Diegem, Belgium). […] The relative area of 6-CF transfer was calculated using FIJI software. By analyzing the area of the dye diffusion from the first line of cells to adjacent cells, the gap junctional coupling was determined.

The test system of assay [4] is primary brain microvascular endothelial cells (pBMECs). Nature of the assay: γ-H2AX counts after local 3×3 mm X-ray irradiation (irradiated and bystander zones), pBMECs. The settings on record: 1 Gy, 3 h post-irradiation. It counts as cell-based, mouse. On the procedure: Cortices, from 10-12 week old mice, were isolated by removing cerebellum, striatum, optic nerves, brain white matter, outer vessels and meninges. After homogenization with a Dounce homogenizer in WBB (Washing Buffer B: HMS, 10 mM Hepes, 0.35 g/L NaHCO3, 0.1% BSA), the homogenate was mixed with 30% dextran in WBB and centrifuged at 3000×g for 25 min at 4° C. The pellet containing the vascular component was then resuspended in WBB and filtered through a 60 μm NY60 Nylon Net Filter (Millipore, Darmstadt, Germany). Following centrifugation at 1000×g for 7 min at room temperature, the pellet was digested in collagenase/dispase supplement with DNase I (Roche Diagnostics, Vilvoorde, Belgium) and TLCK (Tosyl, Lysin chloromethyl ketone, sigma-aldrich) for 33 min at 37° C. in a shaking water bath. The digested capillary suspension was then seeded after multiple washing steps on wells coated with matrigel or glass coated with Corning Cell-Tak (VWR, Leuven, Belgium). For the isolation of intact capillaries the protocol was aborted just before the digestion step.
as §1, §2

The test system of another assay is TIME cells. Nature of the assay: Scrape loading and dye transfer (SLDT), gap junctional coupling after irradiation, TIME cells. It counts as cell-based, human. Particulars: Carbenoxolone 50 μM, single 0.1 or 5 Gy, 6 h and 72 h p.i. Here is the method:
as §3

As for `CC1(C)[C@@H](OC(=O)CCC(=O)O)CC[C@]2(C)[C@H]3C(=O)C=C4[C@@H]5C[C@@](C)(C(=O)O)CC[C@]5(C)CC[C@@]4(C)[C@]3(C)CC[C@@H]12` [Carbenoxolone, carbenoxolone], the “AUC of Ca2+ transients in recipient bystander cells” value in the assay on RBE4 cells [1] (inhibitor added to the irradiated culture 30 min before irradiation, NALC 1 mM) is “reduced the area under the curve (AUC)”. For the same molecule, in the assay with RBE4 cells [1] (inhibitor added to the recipient cells, PPADS 50 μM), the “[Ca2+]i responses in recipient cells” value is “inhibited the [Ca^2]i responses”. In addition, in the assay on RBE4 cells [2], the “γ-H2AX counts in the bystander zone (normalized to vehicle)” value is “significantly inhibited” and the “γ-H2AX counts in the irradiated zone (normalized to vehicle)” value is “not statistically significant”. The “irradiation-induced ATP release” value with RBE4 cells [3] was “inhibited”. For the same molecule, in the assay on TICAE cells, the “6-CF dye spread (gap junctional dye coupling)” value is “inhibited the dye spread in all cases”. In addition, in assay [4], the “γ-H2AX counts in the bystander zone (normalized to vehicle)” value is “significant decrease” and the “γ-H2AX counts in the irradiated area (normalized to vehicle)” value is on record as “significant decrease”. Besides, in the assay with TIME cells, the “6-CF dye spread (gap junctional dye coupling)” value is recorded as “inhibited the dye spread in all cases”.

Values taken from US20200384072A1, “THERAPY OF IONIZING RADIATION-INDUCED DISORDERS” (SCK-CEN, priority 2019, published 2020).
